SMILES strings stand for the structures. Values joined by “and” are separate entries in the source; they are usually repeats but may differ in a detail not shown here. Equal entries are not always repeated. Where two headings read alike, the source gives them in different places.

One may read the IC50 as the concentration that inhibits the measured activity by half.

Test [1] has as its target T1, MMP-2 (Homo sapiens, UniProt P08253).
T1 construct: purchased Sino Biological 10082-HNAH
T1 sequence (P08253 110-660): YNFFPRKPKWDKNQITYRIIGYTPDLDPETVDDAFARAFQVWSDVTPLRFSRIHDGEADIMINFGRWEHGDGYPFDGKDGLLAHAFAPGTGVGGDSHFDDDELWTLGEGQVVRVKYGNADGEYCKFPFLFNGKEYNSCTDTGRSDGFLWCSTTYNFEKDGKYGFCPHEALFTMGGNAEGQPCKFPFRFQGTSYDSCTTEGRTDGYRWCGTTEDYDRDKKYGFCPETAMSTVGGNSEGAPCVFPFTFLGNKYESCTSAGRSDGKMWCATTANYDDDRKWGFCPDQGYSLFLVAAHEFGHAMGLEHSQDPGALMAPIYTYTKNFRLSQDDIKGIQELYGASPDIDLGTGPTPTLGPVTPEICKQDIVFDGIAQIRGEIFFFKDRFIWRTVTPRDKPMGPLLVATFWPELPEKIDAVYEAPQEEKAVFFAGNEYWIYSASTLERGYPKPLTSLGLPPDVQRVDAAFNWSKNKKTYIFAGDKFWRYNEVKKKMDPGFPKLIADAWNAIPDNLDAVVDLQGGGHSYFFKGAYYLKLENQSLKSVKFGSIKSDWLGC
The test can be described thus: MMP-2 inhibition assay (fluorogenic peptide substrate). The test is classed as biochemical. In a few lines: (§1)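 Human proMMP-2 and proMMP-9 were activated with 1 mM APMA for 2 h at 37 °C, then used at 6.5 nM (MMP-2) or 10 nM (MMP-9) final in Tris/NaCl/CaCl2/Brij 35 buffer, pH 7.5. After 30 min preincubation with compound at RT, 25 μM FRET peptide substrate was added and fluorescence (ex 280/em 360 nm) followed for 30 min. IC50 came from logistic fits of Vmax.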

Test [2] has as its target T2, MMP-9 (Homo sapiens, UniProt P14780).
T2 construct: purchased Sino Biological 10327-HNAH
Description: MMP-9 inhibition assay (fluorogenic peptide substrate). On the set-up: remaining enzyme activity (% of control): scale not given here. Format: biochemical. In a few lines: as §1

[3] abbreviates: MMP-2; concentration 1219.00 µM.
[4] abbreviates: mean ± SE; n.d: not detected; Fig. 5d unit inferred, µM; read-out: IC50.
The mark [5] stands for this setting: mean ± SE; n.d: not detected; Fig. 5e prints no unit, µM; read-out: IC50.
Where [6] appears, read: Figure 5d; fragment combination joined by linker; n.d: not detected; read-out: MMP2 IC50.
The mark [7] stands for this setting: Figure 5d; fragment combination joined by linker; n.d: not detected; read-out: MMP9 IC50.

T2 sequence (P14780 107-707 limits assumed): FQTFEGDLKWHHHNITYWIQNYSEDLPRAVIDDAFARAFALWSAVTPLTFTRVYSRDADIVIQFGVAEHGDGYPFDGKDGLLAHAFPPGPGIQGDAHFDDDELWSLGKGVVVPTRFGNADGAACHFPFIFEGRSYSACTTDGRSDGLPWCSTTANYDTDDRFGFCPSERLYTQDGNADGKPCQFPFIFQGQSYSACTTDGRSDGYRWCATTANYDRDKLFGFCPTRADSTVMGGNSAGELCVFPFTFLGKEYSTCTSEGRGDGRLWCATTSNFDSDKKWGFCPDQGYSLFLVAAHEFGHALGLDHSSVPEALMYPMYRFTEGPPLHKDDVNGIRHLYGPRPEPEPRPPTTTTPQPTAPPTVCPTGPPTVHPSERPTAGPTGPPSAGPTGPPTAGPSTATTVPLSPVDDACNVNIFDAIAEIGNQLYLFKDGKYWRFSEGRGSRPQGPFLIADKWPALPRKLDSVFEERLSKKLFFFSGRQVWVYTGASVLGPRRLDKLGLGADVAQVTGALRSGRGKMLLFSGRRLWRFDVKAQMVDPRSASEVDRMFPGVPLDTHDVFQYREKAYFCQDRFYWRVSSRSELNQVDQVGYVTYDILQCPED

With `Cc1cc(=O)[nH]c(-n2nc(C)c(CCC(=O)NCCCCCCCCNC(=O)CCC(=O)NCc3c[nH]nn3)c2C)n1` [693+787 Linker 4], the “remaining activity (%)” value in test [1] (MMP-2; concentration 0.0156 µM) was determined as 90.99; in test [1] (MMP-2; concentration 0.08 µM), 98.42; in test [1] (MMP-2; concentration 0.39 µM) it was 91.65; in test [1] (MMP-2; concentration 1.95 µM), 90.86; in test [1] (MMP-2; concentration 9.75 µM), 84.93; in test [1] (MMP-2; concentration 48.76 µM), 72.64. Further, the results for the “remaining activity (%)” value in test [1] (MMP-2; concentration 243.80 µM) and in test [1] (setting [3]) were 40.04 and 8.77, respectively. Besides, the IC50 in test [1] (setting [4]) was found to be 169 ± 32.6 µM; in test [2] (setting [5]), 250 ± 24.6 µM. Moreover, the “remaining enzyme activity (% of control)” value turned out to be 100.71 in test [2] (MMP-9; concentration 0.08 µM); 80.60 in test [2] (MMP-9; concentration 0.39 µM); 86.03 in test [2] (MMP-9; concentration 1.95 µM); 91.12 in test [2] (MMP-9; concentration 9.75 µM); 86.75 in test [2] (MMP-9; concentration 48.76 µM); 51.81 in test [2] (MMP-9; concentration 243.80 µM). Besides, the “remaining enzyme activity (% of control)” value in test [2] (MMP-9; concentration 1219.00 µM) is 0.00.

In the case of `Cc1cc(=O)[nH]c(-n2nc(C)c(CCC(=O)NCCNC(=O)CSCCNC(=O)c3cncc(O)c3)c2C)n1` [693+828 Linker 24], the “remaining activity (%)” value in test [1] (MMP-2; concentration 0.0156 µM) came out at 100.00; in test [1] (MMP-2; concentration 0.08 µM), 92.98; in test [1] (MMP-2; concentration 0.39 µM) it was 98.13; in test [1] (MMP-2; concentration 1.95 µM), 86.92; in test [1] (MMP-2; concentration 9.75 µM), 82.64; in test [1] (MMP-2; concentration 48.76 µM), 53.90. Besides, the “remaining activity (%)” value turned out to be 16.08 in test [1] (MMP-2; concentration 243.80 µM) and 0.00 in test [1] (setting [3]). For the same compound, the results for the IC50 in test [1] (setting [4]) and in test [2] (setting [5]) were 59.9 ± 15.7 µM and 80.5 ± 15.2 µM, respectively. The “remaining enzyme activity (% of control)” value is recorded as 101.25 in test [2] (MMP-9; concentration 0.04 µM); 90.43 in test [2] (MMP-9; concentration 0.21 µM); 102.01 in test [2] (MMP-9; concentration 1.04 µM); 89.02 in test [2] (MMP-9; concentration 5.19 µM); 79.56 in test [2] (MMP-9; concentration 25.96 µM); 32.87 in test [2] (MMP-9; concentration 129.80 µM). Besides, the “remaining enzyme activity (% of control)” value in test [2] (MMP-9; concentration 649.00 µM) was determined as 0.00.

For the compound `O=C(CCC(=O)NCc1c[nH]nn1)NCCCCCCCCNC(=O)Cn1cnc2c(oc3ccccc32)c1=O` [182_787 4], the IC50 in test [1] (setting [6]) was determined as 193 µM; in test [2] (setting [7]), 134 µM.

Take `Cc1cc(=O)[nH]c(-n2nc(C)c(CCC(=O)NCCNC(=O)CC(=O)/C=C/CCCCNC(=O)c3cncc(O)c3)c2C)n1` [693+828 Linker 12]: the remaining activity at 0.00831 µM in test [1] (MMP-2; concentration 0.00831 µM; read-out: Mean (MMP-2 dose-response, Supplementary fig 15)) worked out at 95.7%. In addition, the remaining activity at 0.04 µM in test [1] (MMP-2; concentration 0.04 µM; read-out: Mean (MMP-2 dose-response, Supplementary fig 15)) stood at 92.8%; in test [2] (MMP-9; concentration 0.04 µM; read-out: Mean (MMP-9 dose-response, Supplementary fig 15)) it was 95.5%. Also, the remaining activity at 0.21 µM amounted to 86.2% in test [1] (MMP-2; concentration 0.21 µM; read-out: Mean (MMP-2 dose-response, Supplementary fig 15)) and 89% in test [2] (MMP-9; concentration 0.21 µM; read-out: Mean (MMP-9 dose-response, Supplementary fig 15)). In addition, the remaining activity at 1.04 µM amounted to 77.4% in test [1] (MMP-2; concentration 1.04 µM; read-out: Mean (MMP-2 dose-response, Supplementary fig 15)) and 89.5% in test [2] (MMP-9; concentration 1.04 µM; read-out: Mean (MMP-9 dose-response, Supplementary fig 15)). Besides, the remaining activity at 5.19 µM in test [1] (MMP-2; concentration 5.19 µM; read-out: Mean (MMP-2 dose-response, Supplementary fig 15)) was found to be 60.2%; in test [2] (MMP-9; concentration 5.19 µM; read-out: Mean (MMP-9 dose-response, Supplementary fig 15)), 71.7%. In addition, the remaining activity at 25.96 µM in test [1] (MMP-2; concentration 25.96 µM; read-out: Mean (MMP-2 dose-response, Supplementary fig 15)) turned out to be 25.3%; in test [2] (MMP-9; concentration 25.96 µM; read-out: Mean (MMP-9 dose-response, Supplementary fig 15)), 32.6%. The remaining activity at 129.8 µM worked out at 0% in test [1] (MMP-2; concentration 129.80 µM; read-out: Mean (MMP-2 dose-response, Supplementary fig 15)) and 0% in test [2] (MMP-9; concentration 129.80 µM; read-out: Mean (MMP-9 dose-response, Supplementary fig 15)). In addition, the remaining activity at 649 µM in test [1] (MMP-2; concentration 649.00 µM; read-out: Mean (MMP-2 dose-response, Supplementary fig 15)) was 0%; in test [2] (MMP-9; concentration 649.00 µM; read-out: Mean (MMP-9 dose-response, Supplementary fig 15)), 0%. Further, the IC50 in test [1] (setting [4]) was 10 µM; in test [2] (setting [5]), 14.8 µM and 15 µM.

With `O=C(Cn1cnc2c(oc3ccccc32)c1=O)NCCNC(=O)c1cncc(O)c1` [182_828 1], the 50% inhibitory concentration (IC50) in test [1] (setting [6]) was determined as 77.1 µM; in test [2] (setting [7]), 92.1 µM.

`O=C(Cn1cnc2c(oc3ccccc32)c1=O)NCc1c[nH]nn1` [182+787 Linker 1]: the “remaining activity (%)” value worked out at 89.30 in test [1] (MMP-2, concentration 0.0156 µM); 95.29 in test [1] (MMP-2, concentration 0.08 µM); 92.88 in test [1] (MMP-2, concentration 0.39 µM); 92.98 in test [1] (MMP-2, concentration 1.95 µM); 84.05 in test [1] (MMP-2; concentration 9.75 µM); 61.94 in test [1] (MMP-2; concentration 48.76 µM). The results for the “remaining activity (%)” value in test [1] (MMP-2; concentration 243.80 µM) and in test [1] (setting [3]) were 24.12 and 0.00, respectively. The results for the IC50 in test [1] (setting [4]) and in test [2] (setting [5]) were 95.5 ± 35.1 µM and 143 ± 32.6 µM, respectively. Besides, the “remaining enzyme activity (% of control)” value in test [2] (MMP-9, concentration 0.08 µM) came out at 89.67; in test [2] (MMP-9, concentration 0.39 µM) it was 88.12; in test [2] (MMP-9, concentration 1.95 µM) it was 85.78; in test [2] (MMP-9, concentration 9.75 µM), 75.76; in test [2] (MMP-9, concentration 48.76 µM), 77.96; in test [2] (MMP-9, concentration 243.80 µM), 22.66. The “remaining enzyme activity (% of control)” value in test [2] (MMP-9, concentration 1219.00 µM) was 0.00.

With `O=C(Cn1cnc2c(oc3ccccc32)c1=O)NCCCCCCCCNC(=O)c1cncc(O)c1` [182_828 4], the IC50 in test [1] (setting [6]) came to 188 µM; in test [2] (setting [7]) it was 233 µM.

In the case of `Cc1cc(=O)[nH]c(-n2nc(C)c(CCC(=O)NCCSCC(=O)NCCNC(=O)c3cnc4c(c3)nc(O)n4C)c2C)n1` [693+826 Linker 24], the “remaining activity (%)” value in test [1] (MMP-2; concentration 0.12 µM) was 98.54; in test [1] (MMP-2; concentration 0.49 µM), 94.49; in test [1] (MMP-2; concentration 1.95 µM), 93.80; in test [1] (MMP-2; concentration 7.81 µM), 81.11; in test [1] (MMP-2; concentration 31.25 µM) it was 77.57; in test [1] (MMP-2; concentration 125.00 µM), 58.31. Also, in test [1] (MMP-2; concentration 500.00 µM), the “remaining activity (%)” value is given as 52.30. In addition, the IC50 turned out to be 417 ± 50.3 µM in test [1] (setting [4]) and 358 ± 114 µM in test [2] (setting [5]). The “remaining enzyme activity (% of control)” value in test [2] (MMP-9; concentration 0.12 µM) was determined as 99.26; in test [2] (MMP-9; concentration 0.49 µM), 96.54; in test [2] (MMP-9; concentration 1.95 µM), 94.32; in test [2] (MMP-9; concentration 7.81 µM), 95.86; in test [2] (MMP-9; concentration 31.25 µM), 95.02; in test [2] (MMP-9; concentration 125.00 µM), 70.00. Also, in test [2] (MMP-9; concentration 500.00 µM), the “remaining enzyme activity (% of control)” value stood at 41.34.
